Source: patent US20240343727A1, “PYRIDAZINONE OR PYRIDINONE COMPOUNDS, PREPARATION METHODS AND USES THEREOF” (InventisBio Co., Ltd., priority 2021, published 2024)
pIC50: −log10 of the molar value.

The compounds below were run on NCI-H1373 cells (assay: Inhibition of cancer cell growth in NCI-H1373 cells (Cell-titer Glo, 6 days)). Details: Homo sapiens, NCI-H1373, 144 h, read-out: H1373 Cell Proliferation IC50.
Assay type: cell-based
Experimental: Biological Assay Example B: Inhibition of cancer cell growth in NCI-H1373 cells by PARP7 inhibitors
NCI-H1373 cells were cultured in RPMI 1640 medium supplemented with 10% fetal bovine serum, 100 U/mL penicillin and 100 ug/mL streptomycin in a 37° C., 5% CO2 incubator. Fifteen hundred cells were seeded into each well of 96-well plate in RPMI1640 medium containing 10% fetal bovine serum and incubated overnight. Serial diluted compounds for each well were added at a final DMSO concentration of 0.5% and a day zero plate was collected for analysis. Compounds were incubated with the cells for 6 days. Cell growth was assessed using Cell-titer Glo reagent (Promega #G^7572). The luminescence signal was collected on Tecan Spark plate reader. Cell growth is determined by correcting for the cell count on day zero. Inhibition rate is calculated with the formula of % inhibition=100*(DMSO control-compounds)/(DMSO control-Blank). Cell growth inhibition IC50 is calculated with the equation of Y-Bottom+ (Top-Bottom)/(1+10^((LogIC50−X) *Hill Slope)).

Row | pIC50 | Compound
1 | > 7.00 | C[C@@H]1CN(C(=O)c2cncc(Oc3n[nH]c(=O)c(C(F)(F)F)c3N3CC4(C3)CC(F)(F)C4)c2)CCN1c1ncc(Cl)cn1 [Compound 321]
2 | < 6.00 | Cc1ccc2c(=O)[nH]nc(N3CCOC(CC(=O)N4CCN(c5ncc(C(F)(F)F)cn5)CC4)C3)c2c1 (single isomer, unassigned) [Compound 123]
3 | > 7.00 | C#Cc1ccc2c(c1)N(c1cc(C(F)(F)F)c(=O)[nH]n1)CC(CC(=O)N1CCN(c3ncc(C(F)(F)F)cn3)CC1)O2 (centres unmarked) [Compound 149]
4 | > 7.00 | COCc1ccc2c(c1)N(c1cc(C(F)(F)F)c(=O)[nH]n1)CC(CC(=O)N1CCN(c3ncc(C(F)(F)F)cn3)CC1)O2 (single isomer, unassigned) [Compound 266]

Same assay, conditions: read-out: H1373 Cell Proliferation IC50

Row | pIC50 | Compound
5 | > 7.00 | O=C(CC1CN(c2cc(C(F)(F)F)c(=O)[nH]n2)c2cc(C(=O)N3CCC3)ccc2O1)N1CCN(c2ncc(C(F)(F)F)cn2)CC1 (single isomer, unassigned) [Compound 336]
6 | > 7.00 | N#Cc1cnc(N2CCN(C(=O)CC3CN(c4cc(C(F)(F)F)c(=O)[nH]n4)c4cc(C(F)F)ccc4O3)CC2)nc1 (single isomer, unassigned) [Compound 138]

What follows are compounds tested against T1, PARP7 (Homo sapiens, UniProt Q7Z3E1) (assay: PARP7 TR-FRET assay (binding, displacement of biotinylated Probe A)). Details: 6 nM PARP7, 2 nM Probe A, 25° C., 30 min.
T1 sequence (Q7Z3E1 1-657): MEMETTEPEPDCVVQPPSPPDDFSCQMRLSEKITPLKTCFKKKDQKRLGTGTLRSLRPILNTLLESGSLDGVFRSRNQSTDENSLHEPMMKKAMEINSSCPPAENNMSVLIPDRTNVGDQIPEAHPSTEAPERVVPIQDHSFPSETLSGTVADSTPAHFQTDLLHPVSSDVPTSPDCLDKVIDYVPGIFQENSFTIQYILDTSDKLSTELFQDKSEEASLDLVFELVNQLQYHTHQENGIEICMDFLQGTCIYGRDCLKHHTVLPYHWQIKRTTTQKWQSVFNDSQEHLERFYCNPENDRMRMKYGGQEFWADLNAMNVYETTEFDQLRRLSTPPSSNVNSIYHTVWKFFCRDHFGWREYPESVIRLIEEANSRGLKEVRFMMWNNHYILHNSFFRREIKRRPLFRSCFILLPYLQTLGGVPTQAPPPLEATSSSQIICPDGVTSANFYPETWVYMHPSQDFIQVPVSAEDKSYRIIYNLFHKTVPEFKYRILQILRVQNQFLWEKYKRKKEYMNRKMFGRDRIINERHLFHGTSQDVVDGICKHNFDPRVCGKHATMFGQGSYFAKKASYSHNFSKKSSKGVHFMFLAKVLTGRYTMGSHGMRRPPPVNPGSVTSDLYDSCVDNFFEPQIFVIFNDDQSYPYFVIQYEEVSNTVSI
Outline: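 His-tagged PARP7 at 6 nM was preincubated with compound and 2 nM biotinylated Probe A for 30 min at 25° C (HEPES pH 8.0, NaCl, BSA, DTT, Tween20). Europium-streptavidin/ULight-anti-His FRET was read as the 665/615 nm ratio after a further 30 min. IC50 was fitted from % inhibition normalised to vehicle and blank.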

Row | Compound | pIC50
7 | O=C(c1cccc(Oc2n[nH]c(=O)c(C(F)(F)F)c2C#CC2CC2)c1)N1CCN(c2ncc(C(F)(F)F)cn2)CC1 [Compound 139] | 6.00 to 7.00
8 | O=C(CC1CN(c2cc(C(F)(F)F)c(=O)[nH]n2)c2ccccc2O1)N1CCN(c2ccc(C(F)(F)F)cn2)CC1 (single isomer, unassigned) [Compound 247] | 6.00 to 7.00
9 | N#Cc1ccc(N2CCN(C(=O)c3cc(Oc4n[nH]c(=O)c(C(F)(F)F)c4N4CC5(C4)CC(F)(F)C5)ccn3)CC2)nc1 [Compound 306] | > 7.00
10 | C#Cc1cc(N2CCOC(CC(=O)N3CCN(c4ncc(C(F)(F)F)cn4)CC3)C2)n[nH]c1=O (single isomer, unassigned) [Compound 45] | 6.00 to 7.00
11 | O=C(CC1CN(c2n[nH]c(=O)c3ncccc23)CCO1)N1CCN(c2ncc(C(F)(F)F)cn2)CC1 (single isomer, unassigned) [Compound 126] | < 6.00
12 | O=C(CC1CN(c2cc(C(F)(F)F)c(=O)[nH]n2)c2ccccc2O1)N1CCN(c2nnc(C(F)(F)F)s2)CC1 (single isomer, unassigned) [Compound 288] | < 6.00
13 | N#CC1(c2ccc3c(c2)N(c2cc(C(F)(F)F)c(=O)[nH]n2)CC(CC(=O)N2CCN(c4ncc(C(F)(F)F)cn4)CC2)O3)CC1 (single isomer, unassigned) [Compound 338] | > 7.00
14 | O=C(CC1CN(c2n[nH]c(=O)c3c(F)cccc23)CCO1)N1CCN(c2ncc(C(F)(F)F)cn2)CC1 (single isomer, unassigned) [Compound 109] | > 7.00
15 | O=C(c1cccc(Oc2n[nH]c(=O)c(C(F)(F)F)c2N2CC3(CCC3)C2)c1)N1CCC(F)(F)CC1 [Compound 159] | 6.00 to 7.00

Results, then the compound that gave them:

Row | pIC50 | Compound
16 | > 7.00 | O=C(CC1CN(c2cc(C(F)(F)F)c(=O)[nH]n2)c2cc(C(=O)N3CCC3)ccc2O1)N1CCN(c2ncc(C(F)(F)F)cn2)CC1 (single isomer, unassigned) [Compound 336]
17 | > 7.00 | C[C@@H]1CN(C(=O)c2cncc(Oc3n[nH]c(=O)c(C(F)(F)F)c3N3CC4(C3)CC(F)(F)C4)c2)CCN1c1ncc(Cl)cn1 [Compound 321]
18 | > 7.00 | Cc1ccc2c(=O)[nH]nc(N3CCOC(CC(=O)N4CCN(c5ncc(C(F)(F)F)cn5)CC4)C3)c2c1 (single isomer, unassigned) [Compound 123]
19 | > 7.00 | C#Cc1ccc2c(c1)N(c1cc(C(F)(F)F)c(=O)[nH]n1)CC(CC(=O)N1CCN(c3ncc(C(F)(F)F)cn3)CC1)O2 (centres unmarked) [Compound 149]
20 | > 7.00 | COCc1ccc2c(c1)N(c1cc(C(F)(F)F)c(=O)[nH]n1)CC(CC(=O)N1CCN(c3ncc(C(F)(F)F)cn3)CC1)O2 (single isomer, unassigned) [Compound 266]
21 | > 7.00 | N#Cc1cnc(N2CCN(C(=O)CC3CN(c4cc(C(F)(F)F)c(=O)[nH]n4)c4cc(C(F)F)ccc4O3)CC2)nc1 (single isomer, unassigned) [Compound 138]
22 | > 7.00 | CNC1CN(c2c(Oc3cccc(C(=O)N4CCN(c5ncc(C(F)(F)F)cn5)CC4)c3)n[nH]c(=O)c2C(F)(F)F)C1 [Compound 61]
23 | > 7.00 | N#CC1(c2ccnc(N3CCN(C(=O)CC4CN(c5cc(C(F)(F)F)c(=O)[nH]n5)c5cc(Cl)ccc5O4)CC3)n2)CC1 (centres unmarked) [Compound 150]
24 | > 7.00 | Cc1c(Oc2cncc(C(=O)N3CCN(c4ncc(C(F)(F)F)cn4)CC3)c2)n[nH]c(=O)c1C(F)(F)F [Compound 20]
25 | > 7.00 | O=C(CC1CN(c2cc(C(F)(F)F)c(=O)[nH]n2)c2cc(C3CC3)ccc2O1)N1CCN(c2ncc(C(F)(F)F)cn2)CC1 (single isomer, unassigned) [Compound 135]
26 | > 7.00 | O=C(CC1CN(c2cc(C(F)(F)F)c(=O)[nH]n2)c2ccccc2O1)N1CCN(c2ccc(C3CC3)cn2)CC1 (single isomer, unassigned) [Compound 285]
